Measured values taken from article PMC11882969 (Nature Communications, 2025).
Values joined by “and” are separate entries in the source; they are usually repeats but may differ in a detail not shown here. Identical values can stand only once.

Legend:
Format in all cases: cell-based
[1] = target: T1, hCB1 (Homo sapiens, UniProt P21554); assay: Tango β-arrestin-2 recruitment, HTLA cells, CB1R; set-up: expressed in transfected cells; host or cells: HTLA cells (gift of R. Axel), transient transfection
[2] = target: hCB2 (Homo sapiens, UniProt P34972); assay: TRUPATH BRET2 GoA dissociation, HEK293T; set-up: expressed in transfected cells; host or cells: HEK293T cells (ATCC: CRL-3216), transient co-transfection; conditions: for functional response, concentration-response point (FigS7e, normalized): Log[drug], replicate columns
[3] = target: T1, hCB1; assay: Lance Ultra cAMP accumulation assay, CHO cells; set-up: expressed in transfected cells; conditions: for normalised cAMP response, concentration-response (Figure2f), replicate values: log[Compound;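 on all read-outs here: human CB1R stably expressed in CHO cells, ligands co-incubated with forskolin at room temperature, read-out is lowering of forskolin-stimulated cAMP accumulation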
Description: The inhibition of forskolin-stimulated cAMP accumulation assays was carried out using PerkinElmer’s Lance Ultra cAMP kit following the manufacturer’s protocol. In brief, CHO cells stably expressing human CB1R (provided by the lab of Laura Bohn) were harvested by incubation with Versene (ThermoFisher Scientific, Waltham, MA) for 10 min, washed once with Hank’s Balanced Salt Solution, and resuspended in stimulation buffer at ~200 cells/μL density. The ligands at eight different concentrations (0.001-10,000 nM) in stimulation buffer (5 μL) containing forskolin (2 μM final concentration) were added to a 384-well plate followed by the cell suspension (5 μL; ~1000 cells/well). The plate was incubated for 30 min at room temperature. Eu-cAMP tracer (5 μL) and Ulight-anti-cAMP (5 μL) working solutions were then added to each well, and the plate was incubated at room temperature for an additional 60 min. Results were measured on a Perkin-Elmer EnVision plate reader. The EC50 values were determined by nonlinear regression analysis using Graphpad Prism 9 and are expressed as the mean of three experiments, each performed in triplicate.

Chain of hCB2 (P34972 whole entry): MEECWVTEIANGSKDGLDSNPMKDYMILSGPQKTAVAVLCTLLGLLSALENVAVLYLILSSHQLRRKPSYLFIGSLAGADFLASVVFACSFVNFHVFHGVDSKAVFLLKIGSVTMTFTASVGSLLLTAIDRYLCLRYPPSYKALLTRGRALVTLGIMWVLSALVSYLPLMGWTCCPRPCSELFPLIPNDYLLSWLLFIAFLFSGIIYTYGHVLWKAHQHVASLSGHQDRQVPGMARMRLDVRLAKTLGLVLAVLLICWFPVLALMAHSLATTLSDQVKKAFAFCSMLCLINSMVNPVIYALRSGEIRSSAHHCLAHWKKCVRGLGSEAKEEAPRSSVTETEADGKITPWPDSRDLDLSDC
T1 sequence (P21554 whole entry): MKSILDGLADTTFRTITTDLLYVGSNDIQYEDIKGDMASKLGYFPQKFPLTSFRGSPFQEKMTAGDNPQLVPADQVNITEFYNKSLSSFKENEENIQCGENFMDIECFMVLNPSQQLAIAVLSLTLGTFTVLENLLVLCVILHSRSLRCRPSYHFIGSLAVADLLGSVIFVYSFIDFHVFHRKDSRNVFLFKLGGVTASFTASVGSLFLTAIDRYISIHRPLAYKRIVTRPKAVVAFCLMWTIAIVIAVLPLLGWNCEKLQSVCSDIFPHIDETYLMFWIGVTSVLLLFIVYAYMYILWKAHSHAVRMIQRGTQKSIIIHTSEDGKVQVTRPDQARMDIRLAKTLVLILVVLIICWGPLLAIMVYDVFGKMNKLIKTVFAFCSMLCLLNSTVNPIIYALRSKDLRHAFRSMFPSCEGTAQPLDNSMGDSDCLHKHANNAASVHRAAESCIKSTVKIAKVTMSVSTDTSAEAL

## COC(=O)C(NC(=O)c1cc(C)n(-c2cccc(C(F)(F)F)c2)n1)c1cccs1 (centres unmarked) [‘60154]
[1]; Log[drug], M = -8.52, individual replicates
  response at Log[drug], M -8.52 (FigS4e): -0.1435 and -1.173 and 0.8807 and -1.256 and 3.396 and 0.2695 and 3.693 and -1.556 and 1.54 and 0.762 and 0.3566 and -1.166
[1]; Log[drug], M = -9, individual replicates
  response at Log[drug], M -9 (FigS4e): -0.3789 and 0.9257 and 0.4985 and -1.1206 and 0.6246 and 1.649 and 1.459 and 1.082 and -0.1538 and 1.773 and 1.969 and 1.368
[1]; Log[drug], M = -9.52
  response, replicate values of concentration-response curve (FigS7f): 41.217 and -5.872 and -26.7955 and -2.208 and 11.6321 and -16.1909 and 10.2609 and 13.9367 and -21.8387 and 26.5917
[1]; Log[drug], M = -9.52, individual replicates
  response at Log[drug], M -9.52 (FigS4e): -0.6308 and 0.506 and 1.398 and 0.3411 and 1.417 and 1.054 and 1.983 and 0.4806 and -1.1508 and 1.754 and 1.621 and -0.4835
[1]; Log[drug], M = -10
  response, replicate values of concentration-response curve (FigS7f): 24.3711 and 8.545 and -42.2513 and 15.4728 and -21.9203 and 6.572 and 26.8747 and -5.278 and 28.0467 and 13.9517
[1]; Log[drug], M = -10, individual replicates
  response at Log[drug], M -10 (FigS4e): -0.3624 and -0.5584 and 1.6 and 1.1356 and 0.03407 and 2.157 and 0.3066 and -2.677 and -0.1348 and -0.07275 and 2.928 and 0.8882
[1]; Log[drug], M = -10.52, individual replicates
  response at Log[drug], M -10.52 (FigS4e): -0.1972 and -0.5734 and -0.1162 and -0.5884 and 2.053 and 3.553 and 2.404 and 0.5855 and 0.2182 and 0.2755 and 0.7811 and -2.185
[1]; Log[drug], M = -11, individual replicates
  response at Log[drug], M -11 (FigS4e): -0.4863 and -0.2436 and -0.1687 and -1.788 and -0.3582 and 1.843 and 0.2942 and 1.859 and 1.201 and 2.6701 and -0.898 and 1.465
[1]; Log[drug], M = -11.52, individual replicates
  response at Log[drug], M -11.52 (FigS4e): -1.461 and -1.915 and -0.401 and -1.735 and -0.6638 and -0.2757 and -0.3004 and 0.6619 and 0.7048 and -0.5021 and 3.748 and -0.3785
[1]; Log[drug], M = -12, individual replicates
  response at Log[drug], M -12 (FigS4e): 0.3314 and 0.2511 and -0.1836 and 1.061 and -0.3335 and 0.1951 and -0.1931 and -0.7644 and -0.8837 and -0.1348 and 1.783 and -1.1281
[1]; hCB1
  Tango ß-arrestin recruitment pEC50: 6.1 [6.0 – 6.1]
[1]; hCB1, read-out: Tango ß-arrestin recruitment EC50
  EC50: 819 nM
[2]
  BRET2 + GoA pEC50: 6.2 [5.6 – 6.9]
  EC50: 594 nM
[2]; HEK-293T
  Emax: 31%
[2]; M = -4.52
  functional response, concentration-response point (FigS7e, normalized): 18.671 and 20.9182 and 18.0789 and 16.7004
[2]; M = -5
  functional response, concentration-response point (FigS7e, normalized): 15.3625 and 13.9237 and 14.7132 and 15.4107 and 19.4252 and 16.9876 and 18.2783 and 12.2533 and 11.9429 and 13.7725 and 13.3839 and 13.0025
[2]; M = -5.52
  functional response, concentration-response point (FigS7e, normalized): 9.963 and 10.999 and 10.5318 and 12.5419 and 11.8092 and 12.1824 and 9.605 and 7.598 and 8.713 and 9.44 and 10.8654 and 8.808
[2]; M = -6
  functional response, concentration-response point (FigS7e, normalized): 5.593 and 3.808 and 3.775 and 3.462 and 6.67 and 5.511 and 6.374 and 4.542 and 6.846 and 4.398 and 2.755 and 4.192
[2]; M = -6.52
  functional response, concentration-response point (FigS7e, normalized): 2.409 and 1.324 and 2.492 and 1.478 and 2.2654 and 2.677 and 2.607 and 2.647 and 2.733 and 1.4886 and 1.807 and 1.367
[2]; M = -7
  functional response, concentration-response point (FigS7e, normalized): 1.643 and 1.038 and 0.587 and 0.6659 and 0.7726 and 0.2984 and 0.761 and 0.6332 and 1.544 and 0.7947 and 0.4011 and 0.3139
[2]; M = -7.52
  functional response, concentration-response point (FigS7e, normalized): 0.7104 and 0.5146 and 0.05736 and 0.5245 and 1.192 and 0.7027 and 0.8893 and 0.666 and 0.5954 and 0.6963 and -0.03292 and 0.3929
[2]; M = -8
  functional response, concentration-response point (FigS7e, normalized): 0.3645 and 0.5311 and 0.5376 and 0.156 and -0.2264 and 0.2284 and 0.4344 and -0.3685 and 0.1487 and 0.4213 and 0.2144 and 0.1495
[2]; M = -8.52
  functional response, concentration-response point (FigS7e, normalized): 0.07184 and -0.1728 and 0.5013 and 0.625 and -0.3869 and 0.7675 and 0.7171 and -0.3804 and 0.4049 and 0.07444 and 0.02209 and 0.4671
[3]
  EC50: 351 nM
  Lance Ultra cAMP pEC50: 6.5 [7.0]
[3]; CHO
  Emax: 67%
[3]; M] -5
  normalised cAMP response, concentration-response (Figure2f), replicate values: 47.6767 and 42.0056 and 42.3397
[3]; M] -6
  normalised cAMP response, concentration-response (Figure2f), replicate values: 18.5649 and 64.1261 and 62.9313 and 54.4312
[3]; M] -7
  normalised cAMP response, concentration-response (Figure2f), replicate values: 60.7575 and 85.7016 and 74.1727 and 91.7418
[3]; M] -8
  normalised cAMP response, concentration-response (Figure2f), replicate values: 71.1204 and 91.8821 and 99.3075 and 104.869
[3]; M] -9
  normalised cAMP response, concentration-response (Figure2f), replicate values: 80.377 and 105.423 and 95.8256 and 102.017
[3]; M] -10
  normalised cAMP response, concentration-response (Figure2f), replicate values: 87.3077 and 96.5214 and 96.3615 and 92.9435
[3]; M] -11
  normalised cAMP response, concentration-response (Figure2f), replicate values: 91.1852 and 100.567 and 97.003 and 102.336
[3]; M] -12
  normalised cAMP response, concentration-response (Figure2f), replicate values: 91.9633 and 106.344 and 93.1819 and 97.7717
